26 molecules from US8536202B2, “Triazole-substituted anthranilamides as pesticides” (Bayer Cropscience AG, priority 2010, dated 2013) can be followed below.

Data set [1] deals with caterpillars of the armyworm (Spodoptera frugiperda). In words: Spodoptera frugiperda test (SPODFR spray treatment). In kind it is in vivo. Conditions: 168 h, read-out: activity in %. In outline:
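Percent caterpillar mortality read 7 days after infestation (0% none killed, 100% all killed). Treatment was a spray of the acetone/DMF/emulsifier formulation, water-diluted to test concentration, onto Zea mays leaf discs, allowed to dry before larvae were added.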

Data set [2] concerns larvae of the mustard beetle (Phaedon cochleariae). In words: Phaedon test (PHAECO spray treatment). The following applies: 168 h, read-out: activity in %. It counts as in vivo. In outline:
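Mortality of mustard beetle larvae, expressed as percent killed (100% all, 0% none), assessed 7 days after spraying. Spray liquor made from compound in acetone plus dimethylformamide with alkylaryl polyglycol ether, diluted in emulsifier-containing water to the desired concentration.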

The nature of data set [3]: log P determination by HPLC on reversed-phase columns (EEC Directive 79/831 Annex V.A8). In kind it is physicochemical. The following applies: pH 2.7. The procedure, abridged: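 Calibration used unbranched alkan-2-ones of 3 to 16 carbons with known log P, values interpolated linearly from retention times between neighbouring standards. Acidic-range LC-MS run at pH 2.7, eluents aqueous and acetonitrile formic acid 0.1%, linear gradient 10% to 95% acetonitrile.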

[4] abbreviates: HPLC on reversed-phase columns (C 18), EEC Directive 79/831 Annex V.A8, read-out: logP.
Setting [5] is: reversed-phase C18 HPLC column, HPLC on reversed-phase columns (C 18), EEC Directive 79/831 Annex V.A8, read-out: logP.

Read-outs that look alike come from different tables or passages of the source.

Consider `CNC(=O)c1cc(Cl)cc(C)c1NC(=O)c1cc(Cn2nc3ccc(Cl)cc3n2)nn1-c1ncccc1Cl` [Example 72], for which the pest or weed control at 100 g/ha in data set [1] (100 g/ha, after 7 days) is 100%; in data set [2] (100 g/ha, after 7 days), 100%. This molecule also displayed a chromatographic logP in data set [3] of 3.28.

Regarding `CNC(=O)c1cc(Cl)cc(C)c1NC(=O)c1cc(Cn2nc3cc(OC(F)(F)F)cc(Br)c3n2)nn1-c1ncccc1Cl` [Example 91], the pest or weed control at 100 g/ha in data set [1] (100 g/ha, after 7 days) was 100%; in data set [2] (100 g/ha, after 7 days), 100%. Moreover, the chromatographic logP in data set [3] was found to be 4.17.

As to `Cc1cc(I)cc(C(=O)NC(C)C)c1NC(=O)c1cc(Cn2ncc(C(F)(F)C(F)(F)C(F)(F)F)n2)nn1-c1ncccc1Cl` [Example 371], the pest or weed control at 100 g/ha in data set [1] and in data set [2] was 100% throughout. Moreover, the chromatographic logP in data set [3] (setting [4]) amounted to 4.46.

Turning to `CNC(=O)c1cc(Cl)cc(C)c1NC(=O)c1cc(Cn2cc(-c3ccc(Cl)cc3)nn2)nn1-c1ncccc1Cl` [Example 17], the pest or weed control at 100 g/ha is 100% in data set [1] (100 g/ha, after 7 days) and 100% in data set [2] (100 g/ha, after 7 days). In data set [3], the chromatographic logP came out at 3.57.

Take `Cc1cc(Cl)cc(C(=O)NC2CC2)c1NC(=O)c1cc(Cn2ncc(C(F)(F)C(F)(F)C(F)(F)F)n2)nn1-c1ncccc1Cl` [Example 370]: the pest or weed control at 100 g/ha in data set [1] and in data set [2] was 100% in each case. Moreover, the chromatographic logP in data set [3] (setting [4]) came out at 3.99.

For `O=C(NCC1CC1)c1cc(Cl)cc(Cl)c1NC(=O)c1cc(Cn2cc(C(F)(F)F)nn2)nn1-c1ncccc1Cl` [Example 204], the pest or weed control at 100 g/ha in data set [1] (100 g/ha, after 7 days) was 100%; in data set [2] (100 g/ha, after 7 days) it was 100%. This molecule also gave a chromatographic logP in data set [3] of 3.14.

Consider `CNC(=O)c1cc(Cl)cc(C)c1NC(=O)c1cc(Cn2nnc3cc([N+](=O)[O-])ccc32)nn1-c1ncccc1Cl` [Example 71], for which the pest or weed control at 100 g/ha in data set [1] (100 g/ha, after 7 days) came to 100%; in data set [2] (100 g/ha, after 7 days), 100%. In data set [3], this molecule displayed a chromatographic logP of 2.64.

With `CNC(=O)c1cc(I)cc(C)c1NC(=O)c1cc(Cn2cc(C(F)(F)F)nn2)nn1-c1ncccc1Cl` [Example 206], the pest or weed control at 100 g/ha in data set [1] (100 g/ha, after 7 days) stood at 100%; in data set [2] (100 g/ha, after 7 days), 100%. The chromatographic logP in data set [3] is 2.86.

Take `NC(=O)c1cc(Cl)cc(Cl)c1NC(=O)c1cc(Cn2ncc(C(F)(C(F)(F)F)C(F)(F)F)n2)nn1-c1ncccc1Cl` [Example 279]: the pest or weed control at 100 g/ha in data set [1] (100 g/ha, after 7 days) was determined as 100%; in data set [2] (100 g/ha, after 7 days), 100%. Besides, the chromatographic logP in data set [3] turned out to be 3.46.

On to `Cc1cc(I)cc(C(=O)NC(C)C2CC2)c1NC(=O)c1cc(Cn2ncc(C(F)(C(F)(F)F)C(F)(F)F)n2)nn1-c1ncccc1Cl` (stereo not drawn) [Example 266], for which the pest or weed control at 100 g/ha worked out at 100% in data set [1] (100 g/ha, after 7 days) and 100% in data set [2] (100 g/ha, after 7 days). Besides, the chromatographic logP in data set [3] (setting [5]) was found to be 4.86.

Consider `N#CCNC(=O)c1cc(Cl)cc(Cl)c1NC(=O)c1cc(Cn2ncc(C(F)(F)F)n2)nn1-c1ncccc1Cl` [Example 154], for which the pest or weed control at 100 g/ha in data set [1] (100 g/ha, after 7 days) was found to be 100%; in data set [2] (100 g/ha, after 7 days), 100%. Further, the chromatographic logP in data set [3] came to 2.9.

For `Cc1cc(I)cc(C(=O)NC(C)C)c1NC(=O)c1cc(Cn2cc(C(F)(F)F)nn2)nn1-c1ncccc1Cl` [Example 210], the pest or weed control at 100 g/ha in data set [1] (100 g/ha, after 7 days) stood at 100%; in data set [2] (100 g/ha, after 7 days), 100%. In data set [3], this molecule displayed a chromatographic logP of 3.38.

Regarding `Cc1cc(I)cc(C(=O)NC(C)(C)C)c1NC(=O)c1cc(Cn2nc(C(F)(F)F)c(C(F)(F)F)n2)nn1-c1ncccc1Cl` [Example 404], the pest or weed control at 100 g/ha in data set [1] (100 g/ha, after 7 days) worked out at 100%; in data set [2] (100 g/ha, after 7 days) it was 100%. The molecule also displayed a chromatographic logP in data set [3] of 4.84.

As to `CNC(=O)c1cc(Cl)cc(C)c1NC(=O)c1cc(Cn2ncc(C(F)(C(F)(F)F)C(F)(F)F)n2)nn1-c1ncccc1Cl` [Example 257], the pest or weed control at 100 g/ha amounted to 100% in data set [1] (100 g/ha, after 7 days) and 100% in data set [2] (100 g/ha, after 7 days). For the same molecule, in data set [3], the chromatographic logP was 3.76.

Turning to `CCNC(=O)c1cc(Cl)cc(C)c1NC(=O)c1cc(Cn2nc(C(F)(F)F)c(C(F)(F)F)n2)nn1-c1ncccc1Cl` [Example 392], the pest or weed control at 100 g/ha was found to be 100% in data set [1] (100 g/ha, after 7 days) and 100% in data set [2] (100 g/ha, after 7 days). Further, in data set [3], the chromatographic logP worked out at 3.98.

With `Cc1cc(F)cc(C(=O)NC2CC2)c1NC(=O)c1cc(Cn2ncc(C(F)(F)F)n2)nn1-c1ncccc1Cl` [Example 169], the pest or weed control at 100 g/ha stood at 100% in data set [1] (100 g/ha, after 7 days) and 100% in data set [2] (100 g/ha, after 7 days). Besides, the chromatographic logP in data set [3] was 2.86.

For `CNC(=O)c1cc(C#N)cc(C)c1NC(=O)c1cc(Cn2nnc3cc(Br)ccc32)nn1-c1ncccc1Cl` [Example 94], the pest or weed control at 100 g/ha worked out at 100% in data set [1] (100 g/ha, after 7 days) and 100% in data set [2] (100 g/ha, after 7 days). This molecule gave a chromatographic logP in data set [3] of 2.66.

As to `CC(NC(=O)c1cc(Cl)cc(Cl)c1NC(=O)c1cc(Cn2cc(C(F)(F)F)nn2)nn1-c1ncccc1Cl)C1CC1` (stereo not drawn) [Example 198], the pest or weed control at 100 g/ha in data set [1] (100 g/ha, after 7 days) came out at 100%; in data set [2] (100 g/ha, after 7 days), 100%. In addition, in data set [3], the chromatographic logP is 3.38.

For `CNC(=O)c1cc(C#N)cc(C)c1NC(=O)c1cc(Cn2ncc(-c3cccc(Cl)c3)n2)nn1-c1ncccc1Cl` [Example 44], the pest or weed control at 100 g/ha in data set [1] (100 g/ha, after 7 days) was 100%; in data set [2] (100 g/ha, after 7 days), 100%. Further, in data set [3], the chromatographic logP was found to be 3.23.

Regarding `Cc1cc(C#N)cc(C(=O)NC(C)(C)C)c1NC(=O)c1cc(Cn2nc3cc(OC(F)(F)F)cc(Br)c3n2)nn1-c1ncccc1Cl` [Example 112], the pest or weed control at 100 g/ha in data set [1] (100 g/ha, after 7 days) came out at 100%; in data set [2] (100 g/ha, after 7 days), 100%. Also, in data set [3] (setting [5]), the chromatographic logP was found to be 4.59.

As for `CNC(=O)c1cc(C#N)cc(C)c1NC(=O)c1cc(Cn2nc3ccc(C(F)(F)F)cc3n2)nn1-c1ncccc1Cl` [Example 102], the pest or weed control at 100 g/ha in data set [1] (100 g/ha, after 7 days) stood at 100%; in data set [2] (100 g/ha, after 7 days), 100%. Also, the chromatographic logP in data set [3] was determined as 3.19.

As to `Cc1cc(C#N)cc(C(=O)NCC2CC2)c1NC(=O)c1cc(Cn2ncc(C(F)(C(F)(F)F)C(F)(F)F)n2)nn1-c1ncccc1Cl` [Example 253], the pest or weed control at 100 g/ha in data set [1] (100 g/ha, after 7 days) stood at 100%; in data set [2] (100 g/ha, after 7 days) it was 100%. For the same molecule, the chromatographic logP in data set [3] (setting [5]) is 3.95.

Turning to `Cc1cc(I)cc(C(=O)NCC2CC2)c1NC(=O)c1cc(Cn2ncc(C(F)(F)C(F)(F)F)n2)nn1-c1ncccc1Cl` [Example 345], the pest or weed control at 100 g/ha was 100% in data set [1] (100 g/ha, after 7 days) and 100% in data set [2] (100 g/ha, after 7 days). The molecule also displayed a chromatographic logP in data set [3] of 4.22.

As for `CNC(=O)c1cc(Cl)cc(C)c1NC(=O)c1cc(Cn2ncc(-c3ccccc3Cl)n2)nn1-c1ncccc1Cl` [Example 27], the pest or weed control at 100 g/ha amounted to 100% in data set [1] (100 g/ha, after 7 days) and 100% in data set [2] (100 g/ha, after 7 days). Besides, in data set [3], the chromatographic logP is 3.43.

Turning to `Cc1cc(C#N)cc(C(=O)NC(C)C)c1NC(=O)c1cc(Cn2nc(C(F)(F)F)c(C(F)(F)F)n2)nn1-c1ncccc1Cl` [Example 398], the pest or weed control at 100 g/ha in data set [1] (100 g/ha, after 7 days) was determined as 100%; in data set [2] (100 g/ha, after 7 days), 100%. Also, in data set [3], the chromatographic logP turned out to be 3.84.

For the molecule `Cc1cc(C#N)cc(C(=O)NC(C)(C)C)c1NC(=O)c1cc(Cn2nnc3c(Br)cc(OC(F)(F)F)cc32)nn1-c1ncccc1Cl` [Example 111], the pest or weed control at 100 g/ha was found to be 100% in data set [1] (100 g/ha, after 7 days) and 100% in data set [2] (100 g/ha, after 7 days). Further, in data set [3] (setting [5]), the chromatographic logP came out at 4.09.
